Data: paper PMC9503112, “Synthesis, Molecular Docking, In Vitro and In Vivo Studies of Novel Dimorpholinoquinazoline-Based Potential Inhibitors of PI3K/Akt/mTOR Pathway” (International Journal of Molecular Sciences, 2022)
Entries after “also recorded” stand apart in the source; their conditions may differ.

Key:
MDA-MB-231 = experiment: Antiproliferative activity, MTT assay; format: cell-based, human
Procedure: Human breast cancer MCF7, MDA-MB-231, SkBr-3 (purchased from the ATCC collection), human keratinocytes HaCaT, murine fibroblasts L929 and macrophages J774 cells (Collection of Shemyakin-Ovchinnikov Institute of Bioorganic Chemistry RAS) were cultured in standard DMEM or RPMI-1640 medium (ThermoScientific, Waltham, MA, USA) supplemented with 10% fetal bovine serum (FBS, Cytiva, Marlborough, MA, USA) at 37 °C, 5 % CO2 and 80–85% humidity (NuAir CO2 incubator). The cell growth was evaluated by MTT (3-[4,5-dimethylthiazol-2-yl]-2,5-diphenyltetrazolium bromide) test. Cells were seeded at a density of 5 × 10^3 cells per well in 96-well flat-bottomed plates (TPP). The compounds were dissolved in DMSO (AppliChem) to 10 mM before the experiments, and then the resulting solutions were diluted by the medium to the required concentrations. Solutions of the tested compounds with different concentrations in 100 μL of the medium were added and the cells were grown for 72 h. MTT (10 μL/well, 5 mg/mL) was added for the final 3 h. The formazan purple crystals were dissolved in DMSO (100 μL per well). The absorbance of solutions was measured at 540 nm with a MultiScan reader (ThermoFisher). Results were analyzed by Excel package (Microsoft). The inhibition of proliferation (inhibitory index) was calculated as [1–(ODexperiment/ODcontrol)], where OD was MTT optical density. IC50 (Table 1) was determined as the concentration giving 50% of inhibition in the comparison with it […].

[1] = tested on: colorectal murine tumor Colon26; experiment: In vivo tumor growth; set-up: species or system BALB/c mice
Procedure: Murine colorectal CT26 (ATCC, CRL-2639) adenocarcinoma tumor cell line was used in the study. Cells were grown in RPMI-1640 supplemented with 10% fetal calf serum (FCS) and pen-strep-glut (all from PanEco, Moscow, Russian Federation). Cells were passaged by trypsinization using Trypsin/EDTA solution (PanEco, Moscow, Russian Federation) twice a week. Cell authentication was not performed by the authors.
Six- to eight-week-old female BALB/c mice were obtained from the Pushchino branch of Shemyakin-Ovchinnikov Institute of Bioorganic Chemistry RAS. All studies were conducted in an AAALAC accredited facility in compliance with the PHS Guidelines for the Care and Use of Animals in Research, protocol #325 from 24.05.2021
Colon-26 cells (10^5) were subcutaneously (s.c.) injected into the depilated flanks of 6-week-old female BALB/c mice. Mice (n = 20) were divided in three groups: control mice (n = 8) were injected with vehicle only; mice from group 1 (n = 6) and 2 (n = 6) were treated with 50 µL of 1 mM 7c injected s.c. near the tumors. […] The perpendicular diameter of each tumor was measured twice a week, and tumor volume was calculated using the following formula: tumor volume (mm^3) = a × b^2 × 0.5, where a represents the longest diameter, b represents the shortest diameter, and 0.5 is a constant used to calculate the volume of an ellipsoid. […]

PARP1 in MCF7 cells = experiment: Immunoblotting of PARP1 cleavage; format: cell-based, human
Procedure: MCF7 cells were seeded onto 100 mm dishes (Corning) and cultivated for 24 h. Compound 7c was added at different concentrations while the reference compound wortmannin (Selleckchem, Houston, TX, USA) was used at 500 nM. The cells were harvested after 72 h of growth with the compounds. To prepare cell extracts, MCF7 cells were twice washed in phosphate buffer and incubated for 10 min on ice in the modified lysis buffer containing 50 mM Tris-HCl, pH 7.5, 0.5% Igepal CA-630, 150 mM NaCl, 1 mM EDTA, 1 mM DTT, 1 mM PMSF, 0.1 mM sodium orthovanadate and aprotinin, leupeptin, pepstatin (1 µg/mL each). The protein content was determined by the Bradford method. Cell lysates were separated in 10% SDS-PAGE under reducing conditions, transferred to a nitrocellulose membrane (GE HealthCare, Chicago, IL, USA), and processed according to a standard protocol. To prevent nonspecific absorption, the membranes were treated with 5% nonfat milk solution in TBS buffer (20 mM Tris, 500 mM NaCl, pH 7.5) with 0.1% Tween-20 and then incubated with primary antibodies (Cell Signaling Technology, Danvers, MA, USA) overnight at 4 °C. […] Signals were detected using the ECL reagent using the ImageQuant LAS4000 system (GE HealthCare, Chicago, IL, USA).
The signals of phospho-proteins to total ones were calculated using the ImageJ program from inverted images of the bands.

MCF7 cells = experiment: MCF7 proliferation with 7c in combination with metformin; format: cell-based, human; conditions: 7c combined with metformin; printed as up to 4 nM
Source text: Hyperglycemia is one of the most frequent side effects of pan- and isoform-selective PI3K inhibitors. Drug-induced inhibition of PI3K reduces glucose uptake that stimulates insulin secretion. Long-term therapy with PI3K inhibitors can cause insulin resistance. […] We have previously analyzed the antiproliferative potency of metformin (MF) against MCF7 breast cancer cells. Metformin induced a partial restoration of the cancer cell sensitivity to hormonal and target drugs. MF caused 50% suppression of MCF7 cell growth at a concentration of 5.8 mM [54]. Based on this fact, MF at the concentrations that had no significant antiproliferative effect was used in the combination with the lead compound. […]
Human breast cancer MCF7, MDA-MB-231, SkBr-3 (purchased from the ATCC collection), human keratinocytes HaCaT, murine fibroblasts L929 and macrophages J774 cells (Collection of Shemyakin-Ovchinnikov Institute of Bioorganic Chemistry RAS) were cultured in standard DMEM or RPMI-1640 medium (ThermoScientific, Waltham, MA, USA) supplemented with 10% fetal bovine serum (FBS, Cytiva, Marlborough, MA, USA) at 37 °C, 5 % CO2 and 80–85% humidity (NuAir CO2 incubator). The cell growth was evaluated by MTT (3-[4,5-dimethylthiazol-2-yl]-2,5-diphenyltetrazolium bromide) test. […] The absorbance of solutions was measured at 540 nm with a MultiScan reader (ThermoFisher). […]

For `O=C(NCCc1cccnc1)Nc1ccc(-c2ccc3c(N4CCOCC4)nc(N4CCOCC4)nc3c2)cc1` [Compound 7c, 1-(4-(2,4-Dimorpholinoquinazolin-7-yl)phenyl)-3-(2-(pyridin-3-yl)ethyl)urea], the IC50 (MDA-MB-231; Homo sapiens, MDA-MB-231, MTT, 72 h, standard deviations within 50%) was 1000 nM, the “Toxicity for MDA-MB-231 (wild type PI3K) lower than for MCF7 (mutant PI3K)” value (MDA-MB-231; MDA-MB-231 versus MCF7) was 5 times and the “Effect on tumor growth, late treatment of large tumors (group 2)” value ([1]; 50 µL of 1 mM 7c s.c. around tumor, from 400–500 mm^3, three injections) was “less evident but still significant; also recorded: tumor destruction”. For the same compound, the “Effect on tumor growth, early treatment (group 1)” value ([1]; 50 µL of 1 mM 7c s.c. near tumor, once in 3 days, from 2–8 mm^3, post three injections, p < 0.05) was “significant”, the “Concentration triggering PARP-1 cleavage” value (PARP1 in MCF7 cells) was 62 to 125 nM and the “Antiproliferative activity in combination with metformin” value (MCF7 cells) was “up to 4 nM”.
